Article PMC9045377, “CpxA Phosphatase Inhibitor Activates CpxRA and Is a Potential Treatment for Uropathogenic Escherichia coli in a Murine Model of Infection” (Microbiology Spectrum, 2022)
“And” between values parts separate entries of the source, which are not always exact repeats. Equal entries are not always repeated. Where two headings read alike, the source gives them in different places.

Key:
[1] = Pharmacokinetics of compound 6 in mice: plasma, urine, bladder, kidneys by HPLC-MS/MS; assay type: in vivo, female CBA/J mice; conditions: for concentration at 52 h / concentration at 48 h: subcutaneous; for concentration at 52 h: 100 mg/kg s.c. once a day at 0, 24, 48 h; for concentration at 48 h: 100 mg/kg s.c. once a day, sample just prior to the 48-h injection
Protocol: We developed a high-performance liquid chromatography-tandem mass spectrometry (HPLC-MS/MS) assay to measure compound 6 with a lower limit of quantification of 1 ng/mL. Single-dose PK parameters of compound 6 were determined in female CBA/J mice (n = 15) given 100 mg/kg s.c. dissolved in the vehicle. Blood was obtained from groups of 3 mice 1, 2, 4, 8, and 24 h postinjection.
As effective antimicrobials must achieve concentrations that exceed their MICs, we next determined whether compound 6 achieved plasma, kidney, bladder, and urinary concentrations in excess of its peak activating concentration of 10 μM in the CpxR reporter assay. […] Blood and urine samples were obtained just prior to the 48-h injection and at 52 h, 4 h after the final dose; we were only able to recover 2 urine samples at those time points. At 52 h, the animals were sacrificed, and tissue levels of compound 6 were determined in the bladder and kidneys. The mean peak and trough levels of compound 6 were 18.6 ± 3.2 μM and 9.6 ± 1.9 μM in the plasma and 344 μM and 151.7 μM in the urine, respectively. The mean tissue levels of compound 6 in the bladder and kidneys were 203 ± 28 μM and 48 ± 4 μM, respectively. Thus, compound 6 achieved levels in the urine, bladder, and kidneys that were ∼5- to 34-fold higher than its peak activating concentration.
Compound 6 was quantified by the IU Simon Comprehensive Cancer Center Clinical Pharmacology Analytical Core from mouse plasma and mouse urine using temazepam (TMP) as the internal standard and HPLC-MS/MS (5500 QTRAP; AB Sciex, Framingham, MA). In brief, compound 6 and TMP were separated by a gradient mobile phase (acetonitrile, 5 mM ammonium acetate) with a Restek Ultra C8 50 by 4.6 mm 5-micron column. The mass spectrometer utilized an electrospray ionization probe run in positive mode. The multiple reaction monitoring (MRM) Q1/Q3 (m/z) transitions for compound 6 and TMP were 187.9/146.0 and 301.1/254.9, respectively. Plasma or urine samples (20 μL) were transferred to glass culture tubes, TMP (20 μL of 0.1 ng/μL) was added as the internal standard, and the extraction was performed by the addition of 2 mL of methyl tertiary butyl ether. The samples were then vortexed, centrifuged, and the organic layer was transferred to a clean glass culture tube and evaporated to dryness. The samples were then reconstituted with 50 μL of the gradient mobile phase, and a 10-μL aliquot was injected to the HPLC-MS/MS. The standard curves were prepared using naive mouse plasma or naive mouse urine as the matched matrix and was linear from 1 to 1,000 ng/mL.
Compound 6 was quantified from the bladder and kidneys using a slightly modified method from the plasma sample analysis. Briefly, the tissue was weighed and then transferred to a polypropylene tube. Phosphate-buffered saline (PBS) (pH 7.4) was added to the tissue to bring the total volume to 0.5 mL (assumption 1 g = 1 mL). The tissue was homogenized using a TissueRuptor with a single use disposable probe. An aliquot (0.4 mL) was transferred to a clean polypropylene tube and temazepam (20 μL of 0.1 ng/μL) was added as the internal standard. The extraction procedure and HPLC-MS/MS conditions were the same as for the plasma samples. The standard curve was prepared using phosphate-buffered saline and was linear from 0.04 to 40 ng/sample.

CpxR-P = CpxR-P accumulation in CFT073 cultured in human urine (Phos-Tag gel, Western blot, densitometry); assay type: cell-based, Escherichia coli; conditions: 150 μM, 5 h, 4 experiments
Protocol: To examine whether treatment with compound 26 fostered higher accumulation of CpxR-P in CFT073 than in untreated CFT073 or CFT073ΔcpxA::cat, we cultured CFT073 in human urine in the presence of 150 μM compound 26 dissolved in DMSO, and CFT073 and CFT073ΔcpxA::cat in the presence of DMSO alone (hereafter called the CFT073 and CFT073ΔcpxA::cat controls); we chose 150 μM, as this was the approximate trough concentration of compound 6 detected in murine urine after 3 days of treatment. Briefly, the bacteria were grown in LB medium overnight, pelleted, washed, and inoculated into human urine and allowed to grow for 5 h. […] We harvested bacterial cells, made cell lysates, and detected CpxR and CpxR-P by Western blotting with an anti-MBP-CpxR antiserum as described ([31]). […] To compare the samples, the CpxR and CpxR-P bands were quantified by densitometry using samples from 4 of the independent experiments. […]
E. coli CFT073 and CFT073ΔcpxA::cat were cultured overnight at 37°C in 5 mL of LB medium overnight with shaking. […] Densitometry values were determined using Photoshop 2021 (version 22.4.3), and the ratio of CpxR-P to CpxR was analyzed by one-way ANOVA adjusted for multiple comparisons using the Tukey procedure.

| Structure (SMILES) | concentration at 52 h ([1]; female, CBA/J, mouse, bladder, at 52 h, read-out: mean tissue level in bladder) | concentration at 52 h ([1]; female, CBA/J, mouse, kidneys, at 52 h, read-out: mean tissue level in kidneys) | concentration at 24 h ([1]; female, CBA/J, mouse, plasma, sc, single dose 100 mg/kg s.c., read-out: plasma concentration at 24 h, mean ± SD) | Tmax ([1]; female, CBA/J, mouse, plasma, sc, single dose 100 mg/kg s.c., read-out: time of peak plasma concentration) | concentration at 52 h ([1]; female, CBA/J, mouse, plasma, sample at 52 h, read-out: mean peak level in plasma) | concentration at 48 h ([1]; female, CBA/J, mouse, plasma, read-out: mean trough level in plasma) | concentration at 52 h ([1]; female, CBA/J, mouse, urine, sample at 52 h, 2 samples, read-out: mean peak level in urine) | concentration at 48 h ([1]; female, CBA/J, mouse, urine, 2 samples, read-out: mean trough level in urine) | peak plasma concentration, mean ± SD ([1]; single dose 100 mg/kg s.c., at 4 h, 100 mg/kg) | increase of the ratio of CpxR-P to CpxR vs CFT073 control (CpxR-P) | increase of the ratio of CpxR-P to CpxR vs CFT073ΔcpxA::cat control (CpxR-P) |
| --- | --- | --- | --- | --- | --- | --- | --- | --- | --- | --- | --- |
| NC1CCCc2c1[nH]c1ccc(F)cc21 (centres unmarked) [compound 6] | 203 ± 28 µM | 48 ± 4 µM | 2390 ng/mL and 11.7 µM | 4 h | 18.6 ± 3.2 µM | 9.6 ± 1.9 µM | 344 µM | 152 µM | 3,305 ± 696 ng/mL and 16.2 ± 3.4 μM | – | – |
| N[C@@H]1CCCc2c1[nH]c1cc(F)c(F)cc21 [compound 26] | – | – | – | – | – | – | – | – | – | 1.3 fold | 1.4 fold |
